# Reference: PubChem BioAssay AID256 (DTP/NCI, 2004)
# “And” between values parts separate entries of the source, which are not always exact repeats. Identical values can stand only once. Inconclusive results and toxic doses are left out.
# Test system: CD2F1 mice, L1210 leukemia ip, survival T/C
# Assay: NCI In Vivo Anticancer Drug Screen. Data for tumor model L1210 Leukemia (intraperitoneal) in CD2F1 (CDF1) mice
# Settings: higher = longer survival
# How it was run: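 Activity against a transplanted murine tumor was judged by comparing the compound group with a vehicle group. The outcome in the treated animals was divided by that in the controls.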
# [1] = endpoint: mean survival time, dose: 100.0 mg/kg/injection, schedule: Q04DX003 (ip), vehicle: saline with Tween-80
# [2] = endpoint: mean survival time, dose: 200.0 mg/kg/injection, schedule: Q04DX003 (ip), vehicle: saline with Tween-80
# [3] = endpoint: mean survival time, dose: 400.0 mg/kg/injection, schedule: Q04DX003 (ip), vehicle: saline with Tween-80
# [4] = endpoint: mean survival time, dose: 100.0 mg/kg/injection, schedule: Q01DX009 (ip), vehicle: saline with Tween-80
# [5] = endpoint: mean survival time, dose: 200.0 mg/kg/injection, schedule: Q01DX009 (ip), vehicle: saline with Tween-80
# [6] = endpoint: mean survival time, dose: 400.0 mg/kg/injection, schedule: Q01DX009 (ip), vehicle: saline with Tween-80
smiles,measurement,setting,value
N#Cc1cn(C2OC(CO)C(O)C2O)n2ccnc12 (stereo not given),T/C,"endpoint: median survival time, dose: 12.5 mg/kg/injection, schedule: Q01DX005 (ip), vehicle: water",118 % of control
same,T/C,"endpoint: median survival time, dose: 25.0 mg/kg/injection, schedule: Q01DX005 (ip), vehicle: water",102 % of control
same,T/C,"endpoint: median survival time, dose: 50.0 mg/kg/injection, schedule: Q01DX005 (ip), vehicle: water",116 % of control
same,T/C,"endpoint: median survival time, dose: 100.0 mg/kg/injection, schedule: Q01DX005 (ip), vehicle: water",109 % of control
same,T/C,"endpoint: median survival time, dose: 200.0 mg/kg/injection, schedule: Q01DX005 (ip), vehicle: water",115 % of control
Cc1c(N)nc([C@H](CC(N)=O)NC[C@H](N)C(N)=O)nc1C(=O)N[C@H](C(=O)N[C@H](C)[C@@H](O)[C@H](C)C(=O)N[C@H](C(=O)NCCc1nc(-c2nc(C(=O)NCCC[S+](C)C)cs2)cs1)[C@@H](C)O)C(OC1OC(CO)C(O)C(O)C1OC1OC(CO)C(O)C(OC(N)=O)C1O)c1cnc[nH]1 (stereo not given in full),T/C,"endpoint: mean survival time, dose: 2.0 mg/kg/injection, schedule: Q01DX009 (ip), vehicle: saline",103 % of control and 106 % of control
same,T/C,"endpoint: mean survival time, dose: 2.0 mg/kg/injection, schedule: Q01DX009 (ip), vehicle: water",106 % of control
same,T/C,"endpoint: mean survival time, dose: 4.0 mg/kg/injection, schedule: Q01DX009 (ip), vehicle: water",110 % of control
same,T/C,"endpoint: mean survival time, dose: 8.0 mg/kg/injection, schedule: Q01DX009 (ip), vehicle: water",110 % of control
same,T/C,"endpoint: mean survival time, dose: 12.0 mg/kg/injection, schedule: Q01DX009 (ip), vehicle: saline",117 % of control
same,T/C,"endpoint: mean survival time, dose: 16.0 mg/kg/injection, schedule: Q01DX009 (ip), vehicle: water",108 % of control
same,T/C,"endpoint: mean survival time, dose: 32.0 mg/kg/injection, schedule: Q01DX009 (ip), vehicle: saline",115 % of control and 104 % of control
same,T/C,"endpoint: mean survival time, dose: 32.0 mg/kg/injection, schedule: Q01DX009 (ip), vehicle: water",103 % of control
same,T/C,"endpoint: mean survival time, dose: 64.0 mg/kg/injection, schedule: Q01DX009 (ip), vehicle: saline",104 % of control
same,T/C,"endpoint: median survival time, dose: 0.5 mg/kg/injection, schedule: Q01DX009 (ip), vehicle: saline",88 % of control
same,T/C,"endpoint: median survival time, dose: 0.5 mg/kg/injection, schedule: Q03HX024 (ip), vehicle: saline",105 % of control
same,T/C,"endpoint: median survival time, dose: 1.0 mg/kg/injection, schedule: Q01DX009 (ip), vehicle: saline",100 % of control and 108 % of control
same,T/C,"endpoint: median survival time, dose: 1.0 mg/kg/injection, schedule: Q03HX016 (ip), vehicle: saline",104 % of control
same,T/C,"endpoint: median survival time, dose: 1.0 mg/kg/injection, schedule: Q03HX024 (ip), vehicle: saline",105 % of control
same,T/C,"endpoint: median survival time, dose: 2.0 mg/kg/injection, schedule: Q03HX008 (ip), vehicle: saline",109 % of control
same,T/C,"endpoint: median survival time, dose: 2.0 mg/kg/injection, schedule: Q03HX016 (ip), vehicle: saline",104 % of control
same,T/C,"endpoint: median survival time, dose: 2.0 mg/kg/injection, schedule: Q03HX024 (ip), vehicle: saline",104 % of control
same,T/C,"endpoint: median survival time, dose: 4.0 mg/kg/injection, schedule: Q03HX008 (ip), vehicle: saline",104 % of control
same,T/C,"endpoint: median survival time, dose: 4.0 mg/kg/injection, schedule: Q03HX016 (ip), vehicle: saline",97 % of control
same,T/C,"endpoint: median survival time, dose: 4.0 mg/kg/injection, schedule: Q03HX024 (ip), vehicle: saline",104 % of control
same,T/C,"endpoint: median survival time, dose: 8.0 mg/kg/injection, schedule: Q03HX008 (ip), vehicle: saline",107 % of control
same,T/C,"endpoint: median survival time, dose: 8.0 mg/kg/injection, schedule: Q03HX016 (ip), vehicle: saline",104 % of control
same,T/C,"endpoint: median survival time, dose: 8.0 mg/kg/injection, schedule: Q04DX003 (ip), vehicle: saline",107 % of control
same,T/C,"endpoint: median survival time, dose: 8.0 mg/kg/injection, schedule: Q08DX002 (ip), vehicle: saline",105 % of control
same,T/C,"endpoint: median survival time, dose: 16.0 mg/kg/injection, schedule: Q01DX001 (ip), vehicle: saline",103 % of control
same,T/C,"endpoint: median survival time, dose: 16.0 mg/kg/injection, schedule: Q03HX008 (ip), vehicle: saline",103 % of control
same,T/C,"endpoint: median survival time, dose: 16.0 mg/kg/injection, schedule: Q03HX016 (ip), vehicle: saline",101 % of control
same,T/C,"endpoint: median survival time, dose: 16.0 mg/kg/injection, schedule: Q04DX003 (ip), vehicle: saline",109 % of control
same,T/C,"endpoint: median survival time, dose: 16.0 mg/kg/injection, schedule: Q08DX002 (ip), vehicle: saline",105 % of control
same,T/C,"endpoint: median survival time, dose: 32.0 mg/kg/injection, schedule: Q01DX001 (ip), vehicle: saline",98 % of control
same,T/C,"endpoint: median survival time, dose: 32.0 mg/kg/injection, schedule: Q04DX003 (ip), vehicle: saline",101 % of control
same,T/C,"endpoint: median survival time, dose: 32.0 mg/kg/injection, schedule: Q08DX002 (ip), vehicle: saline",102 % of control
same,T/C,"endpoint: median survival time, dose: 64.0 mg/kg/injection, schedule: Q01DX001 (ip), vehicle: saline",98 % of control
same,T/C,"endpoint: median survival time, dose: 64.0 mg/kg/injection, schedule: Q04DX003 (ip), vehicle: saline",104 % of control
same,T/C,"endpoint: median survival time, dose: 64.0 mg/kg/injection, schedule: Q08DX002 (ip), vehicle: saline",107 % of control
same,T/C,"endpoint: median survival time, dose: 128.0 mg/kg/injection, schedule: Q01DX001 (ip), vehicle: saline",105 % of control
same,T/C,"endpoint: median survival time, dose: 128.0 mg/kg/injection, schedule: Q04DX003 (ip), vehicle: saline",115 % of control
same,T/C,"endpoint: median survival time, dose: 128.0 mg/kg/injection, schedule: Q08DX002 (ip), vehicle: saline",97 % of control
same,T/C,"endpoint: median survival time, dose: 256.0 mg/kg/injection, schedule: Q01DX001 (ip), vehicle: saline",107 % of control
CCCCCCCC(=O)N/N=C(\CO)[C@]1(O)Cc2c(O)c3c(c(O)c2[C@@H](OC2CC(N)C(O)C(C)O2)C1)C(=O)c1c(OC)cccc1C3=O (stereo not given in full),T/C,"endpoint: mean survival time, dose: 1.5 mg/kg/injection, schedule: Q01DX009 (ip), vehicle: saline",124 % of control
same,T/C,"endpoint: mean survival time, dose: 3.0 mg/kg/injection, schedule: Q01DX009 (ip), vehicle: saline",122 % of control
same,T/C,"endpoint: mean survival time, dose: 6.0 mg/kg/injection, schedule: Q01DX009 (ip), vehicle: saline",122 % of control
same,T/C,"endpoint: mean survival time, dose: 12.0 mg/kg/injection, schedule: Q01DX009 (ip), vehicle: suspension in saline",118 % of control
same,T/C,"endpoint: mean survival time, dose: 48.0 mg/kg/injection, schedule: Q01DX009 (ip), vehicle: suspension in saline",162 % of control
CC1CC(C)(C)NC(c2ccccc2)O1 (stereo not given),T/C,[1],94 % of control
same,T/C,[2],94 % of control
same,T/C,[3],102 % of control
COC(=O)/C=C/N(CCF)CCF,T/C,"endpoint: mean survival time, dose: 1.0 mg/kg/injection, schedule: Q01DX Z (ip), vehicle: saline",94 % of control
same,T/C,"endpoint: mean survival time, dose: 3.0 mg/kg/injection, schedule: Q01DX Z (ip), vehicle: saline",108 % of control
CC1(C)N=C(N)N=C(N)N1c1ccc(C(=O)c2ccccc2)cc1,T/C,[1],91 % of control
Nc1cc2c3c(cccc3c1)C(=O)N(CCN1CCCC1)C2=O,T/C,"endpoint: mean survival time, dose: 3.12 mg/kg/injection, schedule: Q01DX009 (ip), vehicle: saline with Tween-80",96 % of control and 102 % of control
same,T/C,"endpoint: mean survival time, dose: 6.25 mg/kg/injection, schedule: Q01DX009 (ip), vehicle: saline with Tween-80",101 % of control and 107 % of control
same,T/C,"endpoint: mean survival time, dose: 12.5 mg/kg/injection, schedule: Q01DX009 (ip), vehicle: saline with Tween-80",117 % of control and 110 % of control
same,T/C,"endpoint: mean survival time, dose: 25.0 mg/kg/injection, schedule: Q01DX009 (ip), vehicle: saline with Tween-80",113 % of control and 119 % of control and 111 % of control
same,T/C,"endpoint: mean survival time, dose: 50.0 mg/kg/injection, schedule: Q01DX009 (ip), vehicle: saline with Tween-80",175 % of control
same,T/C,[4],86 % of control
same,T/C,[5],91 % of control
CSc1cccc(NC2=NCCO2)c1,T/C,[1],90 % of control
same,T/C,[2],93 % of control
same,T/C,[3],86 % of control
CC(=O)OC1CCC2(C)C(=CCC3C2CCC2(C)C(C(C)CCC(=O)O)CCC32)C1 (stereo not given),T/C,[4],95 % of control
same,T/C,[5],95 % of control
same,T/C,[6],96 % of control
CCCCCCCCCCC(O)CCCCCCCCCC,T/C,[1],100 % of control
same,T/C,[2],90 % of control
same,T/C,[3],90 % of control
CCC(CC)C(=O)OCCCCOC(=O)C(CC)CC,T/C,"endpoint: mean survival time, dose: 100.0 mg/kg/injection, schedule: Q04DX003 (ip), vehicle: saline",93 % of control
same,T/C,"endpoint: mean survival time, dose: 200.0 mg/kg/injection, schedule: Q04DX003 (ip), vehicle: saline",107 % of control
same,T/C,"endpoint: mean survival time, dose: 400.0 mg/kg/injection, schedule: Q04DX003 (ip), vehicle: saline",107 % of control
Nc1ccc(CCc2ccccc2)cc1,T/C,"endpoint: mean survival time, dose: 50.0 mg/kg/injection, schedule: Q04DX002 (ip), vehicle: saline with Tween-80",98 % of control and 105 % of control
same,T/C,"endpoint: mean survival time, dose: 50.0 mg/kg/injection, schedule: Q04DX003 (ip), vehicle: saline with Tween-80",104 % of control
same,T/C,[1],100 % of control and 101 % of control and 107 % of control
same,T/C,[2],92 % of control and 104 % of control
O=S(=O)(Nc1ccc(NS(=O)(=O)c2ccccc2)c2ccccc12)c1ccccc1,T/C,[1],97 % of control
same,T/C,[2],91 % of control
same,T/C,[3],96 % of control
CCCCCCCC(=O)Nc1c(C)cccc1C,T/C,[4],96 % of control
same,T/C,[5],88 % of control
same,T/C,[6],91 % of control
CN(N)c1nc(N)c(C#N)c(C#N)c1C#N,T/C,"endpoint: mean survival time, dose: 50.0 mg/kg/injection, schedule: Q01DX001 (ip), vehicle: saline",97 % of control
same,T/C,"endpoint: mean survival time, dose: 100.0 mg/kg/injection, schedule: Q01DX001 (ip), vehicle: saline",101 % of control
same,T/C,"endpoint: mean survival time, dose: 200.0 mg/kg/injection, schedule: Q01DX001 (ip), vehicle: saline",101 % of control
same,T/C,"endpoint: mean survival time, dose: 400.0 mg/kg/injection, schedule: Q01DX001 (ip), vehicle: saline",97 % of control
CCCCCCCCCCC[n+]1ccc(C#N)cc1,T/C,"endpoint: mean survival time, dose: 9.38 mg/kg/injection, schedule: Q01DX001 (ip), vehicle: saline",105 % of control
same,T/C,"endpoint: mean survival time, dose: 18.75 mg/kg/injection, schedule: Q01DX001 (ip), vehicle: saline",98 % of control
